Legend:
Human δ-opioid (DOP) = molecular target: T1, Human δ-opioid (DOP) (Homo sapiens, UniProt P41143); assay: Radioligand binding, human δ-opioid (DOP) membranes, FlashPlate, [3H]-Bremazocine; details: compound at 10 μM, [3H]-Bremazocine
T1 construct: purchased Perkin Elmer Biosignal
In short: (§1)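 Cloned human receptor membranes were coated onto FlashPlate wells and incubated with radioligand and compound (added from a 0.5 mM DMSO daughter plate) for 1 hour at room temperature in the dark. Scintillation counting gave percent inhibition, with DMSO defining total and reference ligand defining non-specific binding.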

Human κ-Opioid (KOP) = molecular target: T2, Human κ-Opioid (KOP) (Homo sapiens, UniProt P41145); assay: Radioligand binding, human κ-opioid (KOP) membranes, filtration, [3H]-Diprenorphine; details: compound at 10 μM, [3H]-Diprenorphine
T2 construct: purchased Perkin Elmer Biosignal
T2 sequence (P41145 whole entry): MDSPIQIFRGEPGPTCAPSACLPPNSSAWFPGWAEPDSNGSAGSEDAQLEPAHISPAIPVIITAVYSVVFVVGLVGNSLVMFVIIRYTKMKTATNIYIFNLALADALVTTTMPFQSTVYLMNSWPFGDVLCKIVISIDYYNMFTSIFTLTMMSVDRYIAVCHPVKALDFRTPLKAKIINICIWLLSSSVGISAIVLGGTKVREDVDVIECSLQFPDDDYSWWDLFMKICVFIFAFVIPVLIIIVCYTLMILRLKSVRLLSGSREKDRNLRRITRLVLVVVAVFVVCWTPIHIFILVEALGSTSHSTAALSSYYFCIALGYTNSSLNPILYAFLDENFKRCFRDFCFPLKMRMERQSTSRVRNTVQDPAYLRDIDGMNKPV
In short: (§2)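 Membranes from cloned human receptors were incubated with compound and radioligand for 1 hour at room temperature. Bound ligand was collected on 0.3% PEI-soaked filters, washed with cold 50 mM Tris-HCl pH 7.4, and counted by scintillation. Percent inhibition was computed against DMSO totals and reference-ligand nonspecific wells.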

Human Melanocortin (MC3) = molecular target: T3, Human Melanocortin (MC3) (Homo sapiens, UniProt P41968); assay: Radioligand binding, human melanocortin MC3 membranes, FlashPlate, [125I]-NDP-αMSH; details: compound at 10 μM, [125I]-NDP-αMSH
T3 construct: purchased Perkin Elmer Biosignal
T3 sequence (P41968 whole entry): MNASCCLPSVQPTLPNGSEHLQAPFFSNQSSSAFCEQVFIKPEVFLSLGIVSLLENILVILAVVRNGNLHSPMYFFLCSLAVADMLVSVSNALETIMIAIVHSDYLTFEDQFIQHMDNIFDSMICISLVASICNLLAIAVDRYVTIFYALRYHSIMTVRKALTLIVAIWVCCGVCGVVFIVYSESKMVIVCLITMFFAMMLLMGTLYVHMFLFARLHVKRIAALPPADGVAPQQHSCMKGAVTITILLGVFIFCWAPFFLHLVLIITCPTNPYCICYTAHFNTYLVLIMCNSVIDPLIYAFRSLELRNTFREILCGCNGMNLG
In short: as §1

Human Melanocortin (MC4) = molecular target: T4, Human Melanocortin (MC4) (Homo sapiens, UniProt P32245); assay: Radioligand binding, human melanocortin MC4 membranes, FlashPlate, [125I]-NDP-αMSH; details: compound at 10 μM, [125I]-NDP-αMSH
T4 construct: purchased Perkin Elmer Biosignal
T4 sequence (P32245 whole entry): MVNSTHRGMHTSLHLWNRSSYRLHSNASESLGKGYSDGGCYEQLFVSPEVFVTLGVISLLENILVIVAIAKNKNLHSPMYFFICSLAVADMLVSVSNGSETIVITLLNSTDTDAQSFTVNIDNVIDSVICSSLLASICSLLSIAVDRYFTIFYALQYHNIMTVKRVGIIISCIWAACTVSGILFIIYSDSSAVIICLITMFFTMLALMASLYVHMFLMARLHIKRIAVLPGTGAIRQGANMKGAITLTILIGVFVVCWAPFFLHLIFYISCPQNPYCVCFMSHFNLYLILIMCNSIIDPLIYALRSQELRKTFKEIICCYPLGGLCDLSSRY
In short: as §1

Human melanocortin (MC5) = molecular target: T5, Human melanocortin (MC5) (Homo sapiens, UniProt P33032); assay: Radioligand binding, human melanocortin MC5 membranes, FlashPlate, [125I]-NDP-αMSH; details: compound at 10 μM, [125I]-NDP-αMSH
T5 construct: purchased Perkin Elmer Biosignal
T5 sequence (P33032 whole entry): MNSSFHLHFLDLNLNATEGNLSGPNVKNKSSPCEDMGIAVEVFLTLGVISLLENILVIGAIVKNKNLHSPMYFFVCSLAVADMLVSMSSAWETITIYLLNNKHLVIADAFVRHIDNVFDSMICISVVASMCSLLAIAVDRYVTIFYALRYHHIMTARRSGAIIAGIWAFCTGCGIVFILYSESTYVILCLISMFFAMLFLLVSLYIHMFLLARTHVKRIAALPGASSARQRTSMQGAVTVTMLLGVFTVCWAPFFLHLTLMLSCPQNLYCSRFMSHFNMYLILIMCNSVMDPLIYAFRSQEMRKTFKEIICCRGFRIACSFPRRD
In short: as §1

[1] = molecular target: T6, Human melanin-concentrating hormone (MCH1) (Homo sapiens, UniProt Q99705); assay: Radioligand binding, human melanin-concentrating hormone MCH1 membranes, FlashPlate, [125I]-S36057; details: compound at 10 μM
T6 construct: purchased Perkin Elmer Biosignal
T6 sequence (Q99705 whole entry): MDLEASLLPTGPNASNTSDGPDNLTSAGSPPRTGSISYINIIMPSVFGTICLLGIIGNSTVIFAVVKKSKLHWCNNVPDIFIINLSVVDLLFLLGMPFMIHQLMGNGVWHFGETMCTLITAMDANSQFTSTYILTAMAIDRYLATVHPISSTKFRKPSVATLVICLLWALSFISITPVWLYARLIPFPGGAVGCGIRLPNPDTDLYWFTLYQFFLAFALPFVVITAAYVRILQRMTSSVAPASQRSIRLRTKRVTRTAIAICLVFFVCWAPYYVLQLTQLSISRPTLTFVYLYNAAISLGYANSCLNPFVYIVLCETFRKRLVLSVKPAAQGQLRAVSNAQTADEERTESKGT
In short: as §1

Human μ-opioid (MOP) = molecular target: T7, Human μ-opioid (MOP) (Homo sapiens, UniProt P35372); assay: Radioligand binding, human μ-opioid (MOP) membranes, FlashPlate, [3H]-Naloxone; details: compound at 10 μM, [3H]-Naloxone
T7 construct: purchased Perkin Elmer Biosignal
T7 sequence (P35372 whole entry): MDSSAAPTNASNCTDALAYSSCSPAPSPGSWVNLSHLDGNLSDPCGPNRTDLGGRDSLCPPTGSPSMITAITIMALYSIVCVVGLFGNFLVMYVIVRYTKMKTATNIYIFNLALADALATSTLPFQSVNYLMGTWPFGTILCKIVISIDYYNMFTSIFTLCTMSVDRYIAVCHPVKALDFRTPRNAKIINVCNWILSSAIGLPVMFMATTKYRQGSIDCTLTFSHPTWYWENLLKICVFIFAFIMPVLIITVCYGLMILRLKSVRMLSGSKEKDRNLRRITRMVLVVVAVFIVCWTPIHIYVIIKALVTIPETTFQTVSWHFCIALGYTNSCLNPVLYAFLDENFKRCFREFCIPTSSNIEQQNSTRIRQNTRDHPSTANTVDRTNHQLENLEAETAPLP
In short: as §1

Human neurokinin (NK1) = molecular target: T8, Human neurokinin (NK1) (Homo sapiens, UniProt P25103); assay: Radioligand binding, human neurokinin NK1 membranes, filtration, [125I]-Substance P; details: compound at 10 μM, [125I]-Substance P
T8 construct: purchased Perkin Elmer Biosignal
T8 sequence (P25103 whole entry): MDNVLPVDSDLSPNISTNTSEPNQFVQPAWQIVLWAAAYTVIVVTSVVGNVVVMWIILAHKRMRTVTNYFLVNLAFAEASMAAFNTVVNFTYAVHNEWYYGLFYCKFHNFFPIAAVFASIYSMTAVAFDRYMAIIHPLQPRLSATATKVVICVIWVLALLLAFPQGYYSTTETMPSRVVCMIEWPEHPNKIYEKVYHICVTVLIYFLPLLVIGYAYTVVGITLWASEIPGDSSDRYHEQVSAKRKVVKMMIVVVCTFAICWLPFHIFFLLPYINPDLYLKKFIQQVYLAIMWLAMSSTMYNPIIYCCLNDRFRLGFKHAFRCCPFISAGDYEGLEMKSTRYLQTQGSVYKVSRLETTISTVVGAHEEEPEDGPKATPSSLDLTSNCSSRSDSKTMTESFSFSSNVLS
In short: as §2

[2] = molecular target: T9, Human neuropeptide Y (NPY-Y1) (Homo sapiens, UniProt P25929); assay: Radioligand binding, human neuropeptide Y NPY-Y1 membranes, FlashPlate, [125I]-PYY; details: compound at 10 μM, [125I]-PYY
T9 construct: purchased Perkin Elmer Biosignal
T9 sequence (P25929 1-384): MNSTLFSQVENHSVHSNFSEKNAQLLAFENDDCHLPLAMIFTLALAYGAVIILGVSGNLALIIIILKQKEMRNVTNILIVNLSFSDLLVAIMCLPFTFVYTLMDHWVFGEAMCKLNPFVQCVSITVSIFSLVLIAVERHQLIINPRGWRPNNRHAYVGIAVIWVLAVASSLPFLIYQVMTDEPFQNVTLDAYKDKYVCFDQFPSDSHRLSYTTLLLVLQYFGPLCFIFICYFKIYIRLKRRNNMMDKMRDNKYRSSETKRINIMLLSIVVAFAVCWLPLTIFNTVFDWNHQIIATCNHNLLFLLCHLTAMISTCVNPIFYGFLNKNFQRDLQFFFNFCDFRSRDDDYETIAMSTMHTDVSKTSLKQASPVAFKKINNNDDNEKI
In short: as §1

Human opioid (ORL1) = molecular target: T10, Human opioid (ORL1) (Homo sapiens, UniProt P41146); assay: Radioligand binding, human opioid ORL1 membranes, FlashPlate, [125I]-Nociceptin; details: compound at 10 μM, [125I]-Nociceptin
T10 construct: purchased Perkin Elmer Biosignal
T10 sequence (P41146 whole entry): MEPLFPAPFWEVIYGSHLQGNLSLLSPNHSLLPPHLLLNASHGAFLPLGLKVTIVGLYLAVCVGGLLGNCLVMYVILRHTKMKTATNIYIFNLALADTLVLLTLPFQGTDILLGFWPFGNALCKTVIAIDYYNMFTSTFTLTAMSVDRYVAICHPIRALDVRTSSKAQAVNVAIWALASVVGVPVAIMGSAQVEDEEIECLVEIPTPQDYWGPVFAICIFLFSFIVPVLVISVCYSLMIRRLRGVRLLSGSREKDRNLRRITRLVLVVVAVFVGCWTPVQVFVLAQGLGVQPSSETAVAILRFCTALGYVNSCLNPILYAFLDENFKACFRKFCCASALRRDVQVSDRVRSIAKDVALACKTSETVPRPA
In short: as §1

Mouse urotensin (mUR2) = molecular target: T11, Mouse urotensin (mUR2) (Mus musculus, UniProt Q8VIH9); assay: Radioligand binding, mouse urotensin mUR2 membranes, FlashPlate, [125I]-Urotensin II; details: compound at 10 μM, [125I]-Urotensin II
T11 construct: purchased Perkin Elmer Biosignal
T11 sequence (Q8VIH9 1-385): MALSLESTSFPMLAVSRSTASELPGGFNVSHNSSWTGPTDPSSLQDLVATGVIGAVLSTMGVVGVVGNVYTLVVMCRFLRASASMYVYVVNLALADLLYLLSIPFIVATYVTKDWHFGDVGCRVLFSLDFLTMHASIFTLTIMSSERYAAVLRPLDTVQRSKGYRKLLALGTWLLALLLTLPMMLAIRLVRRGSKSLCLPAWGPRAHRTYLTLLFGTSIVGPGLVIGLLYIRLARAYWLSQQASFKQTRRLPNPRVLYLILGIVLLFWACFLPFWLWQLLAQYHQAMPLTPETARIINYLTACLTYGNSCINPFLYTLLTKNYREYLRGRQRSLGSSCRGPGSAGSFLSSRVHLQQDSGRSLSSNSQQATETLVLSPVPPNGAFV
In short: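 Cloned mouse urotensin (mUR2) receptor membranes from Perkin Elmer Biosignal were immobilized in FlashPlate microplates using a proprietary coating. Each well got 19.5 μl buffer, then 0.5 μl of DMSO, reference ligand, or compound. Adding 5 μl of [125I]-Urotensin II, diluted to 5× final concentration in binding buffer, started binding. Plates were sealed with TopSeal-A and incubated 1 hour at room temperature in the dark. Wells were counted for 30 seconds each on a TopCount after a 60-second delay, and percentage inhibition was calculated.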

T1 sequence (P41143 whole entry): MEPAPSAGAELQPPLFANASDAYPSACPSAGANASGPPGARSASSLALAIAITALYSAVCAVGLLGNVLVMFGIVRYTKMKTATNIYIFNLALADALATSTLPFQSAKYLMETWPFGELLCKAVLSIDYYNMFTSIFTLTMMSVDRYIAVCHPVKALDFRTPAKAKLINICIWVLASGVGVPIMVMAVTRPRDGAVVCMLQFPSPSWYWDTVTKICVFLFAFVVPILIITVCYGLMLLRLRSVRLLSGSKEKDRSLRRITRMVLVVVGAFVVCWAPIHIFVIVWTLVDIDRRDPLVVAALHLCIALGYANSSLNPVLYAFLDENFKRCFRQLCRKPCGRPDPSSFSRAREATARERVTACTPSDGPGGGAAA

Compound	A1: inhibition of radioligand binding (Human δ-opioid (DOP); FlashPlate)	A2: inhibition of radioligand binding (Human κ-Opioid (KOP); filtration)	A3: inhibition of radioligand binding (Human Melanocortin (MC3); FlashPlate)	A4: inhibition of radioligand binding (Human Melanocortin (MC4); FlashPlate)	A5: inhibition of radioligand binding (Human melanocortin (MC5); FlashPlate)	A6: inhibition of radioligand binding ([1]; [125I]-S36057, FlashPlate)	A7: inhibition of radioligand binding (Human μ-opioid (MOP); FlashPlate)	A8: inhibition of radioligand binding (Human neurokinin (NK1); filtration)	A9: inhibition of radioligand binding ([2]; FlashPlate)	A10: inhibition of radioligand binding (Human opioid (ORL1); FlashPlate)	A11: inhibition of radioligand binding (Mouse urotensin (mUR2); FlashPlate)	other results
CSC1O[C@H](COCc2ccc(-c3ccccc3)cc2)[C@@H](O)[C@@H](OCc2ccc(Cl)cc2)[C@H]1NC(=O)CCN (stereo partly shown) [compound 276]	− (“−” indicates less than 50% inhibition at 10 μM)	− (“−” indicates less than 50% inhibition at 10 μM)	− (“−” indicates less than 50% inhibition at 10 μM)	− (“−” indicates less than 50% inhibition at 10 μM)	− (“−” indicates less than 50% inhibition at 10 μM)	− (“−” indicates less than 50% inhibition at 10 μM)	− (“−” indicates less than 50% inhibition at 10 μM)	+ (“+” indicates greater than 50% inhibition at 10 μM)	− (“−” indicates less than 50% inhibition at 10 μM)	− (“−” indicates less than 50% inhibition at 10 μM)	− (“−” indicates less than 50% inhibition at 10 μM)	–
COCC1OC(OCc2ccc3ccccc3c2)C(NC(=O)CCCN)C(OCc2ccccc2)C1O (stereo not shown) [compound 233]	− (“−” indicates less than 50% inhibition at 10 μM)	− (“−” indicates less than 50% inhibition at 10 μM)	− (“−” indicates less than 50% inhibition at 10 μM)	− (“−” indicates less than 50% inhibition at 10 μM)	− (“−” indicates less than 50% inhibition at 10 μM)	− (“−” indicates less than 50% inhibition at 10 μM)	− (“−” indicates less than 50% inhibition at 10 μM)	+ (“+” indicates greater than 50% inhibition at 10 μM)	− (“−” indicates less than 50% inhibition at 10 μM)	− (“−” indicates less than 50% inhibition at 10 μM)	− (“−” indicates less than 50% inhibition at 10 μM)	–
N=C(N)NCCC(=O)N[C@H]1C(OCc2ccc(Cl)cc2)O[C@H](COCc2ccccc2)[C@@H](O)[C@@H]1OCc1ccc(Cl)cc1 (stereo partly shown) [compound 525]	–	–	–	–	–	–	–	–	–	–	–	A1: inhibition of radioligand binding, human δ-opioid (DOP) (Human δ-opioid (DOP)): − (“−” indicates less than 50% inhibition at 10 μM); A2: inhibition of radioligand binding, human κ-opioid (KOP) (Human κ-Opioid (KOP); 10 µM): + (“+” indicates greater than 50% inhibition at 10 μM); A3: inhibition of radioligand binding, human melanocortin (MC3) (Human Melanocortin (MC3); 10 µM): + (“+” indicates greater than 50% inhibition at 10 μM); A4: inhibition of radioligand binding, human melanocortin (MC4) (Human Melanocortin (MC4); 10 µM): + (“+” indicates greater than 50% inhibition at 10 μM); A5: inhibition of radioligand binding, human melanocortin (MC5) (Human melanocortin (MC5)): + (“+” indicates greater than 50% inhibition at 10 μM); A6: inhibition of radioligand binding, human melanin-concentrating hormone (MCH1) ([1]; [125I]-S36057): + (“+” indicates greater than 50% inhibition at 10 μM); A7: inhibition of radioligand binding, human μ-opioid (MOP) (Human μ-opioid (MOP)): − (“−” indicates less than 50% inhibition at 10 μM); A8: inhibition of radioligand binding, human neurokinin (NK1) (Human neurokinin (NK1)): + (“+” indicates greater than 50% inhibition at 10 μM); A9: inhibition of radioligand binding, human neuropeptide Y (NPY-Y1) [2]: − (“−” indicates less than 50% inhibition at 10 μM); A10: inhibition of radioligand binding, human opioid (ORL1) (Human opioid (ORL1)): − (“−” indicates less than 50% inhibition at 10 μM); A11: inhibition of radioligand binding, mouse urotensin (mUR2) (Mouse urotensin (mUR2)): − (“−” indicates less than 50% inhibition at 10 μM)
NCCCC(=O)NC1C(OCc2ccc3ccccc3c2)OC(COCc2ccc(Cl)cc2)C(O)C1OCc1ccc2ccccc2c1 (single isomer, unassigned) [compound 464]	–	–	–	–	–	–	–	–	–	–	–	A1: inhibition of radioligand binding (Human δ-opioid (DOP); human DOP membranes): − (“−” indicates less than 50% inhibition at 10 μM); A2: inhibition of radioligand binding (Human κ-Opioid (KOP); human KOP membranes, 10 µM): − (“−” indicates less than 50% inhibition at 10 μM); A3: inhibition of radioligand binding (Human Melanocortin (MC3); human MC3 membranes): + (“+” indicates greater than 50% inhibition at 10 μM); A4: inhibition of radioligand binding (Human Melanocortin (MC4); human MC4 membranes): + (“+” indicates greater than 50% inhibition at 10 μM); A5: inhibition of radioligand binding (Human melanocortin (MC5); human MC5 membranes): + (“+” indicates greater than 50% inhibition at 10 μM); A6: inhibition of radioligand binding ([1]; [125I]-S36057, human MCH1 membranes, 10 µM): + (“+” indicates greater than 50% inhibition at 10 μM); A7: inhibition of radioligand binding (Human μ-opioid (MOP); human MOP membranes): − (“−” indicates less than 50% inhibition at 10 μM); A8: inhibition of radioligand binding (Human neurokinin (NK1); human NK1 membranes): + (“+” indicates greater than 50% inhibition at 10 μM); A9: inhibition of radioligand binding ([2]; human NPY-Y1 membranes): − (“−” indicates less than 50% inhibition at 10 μM); A10: inhibition of radioligand binding (Human opioid (ORL1); human ORL1 membranes, 10 µM): + (“+” indicates greater than 50% inhibition at 10 μM); A11: inhibition of radioligand binding (Mouse urotensin (mUR2); mouse mUR2 membranes): − (“−” indicates less than 50% inhibition at 10 μM)
CSC1OC(COCc2ccccc2)C(O)C(OCc2ccc(Cl)cc2)C1NC(=O)CCNC(=N)N (stereo not shown) [compound 267]	− (“−” indicates less than 50% inhibition at 10 μM)	− (“−” indicates less than 50% inhibition at 10 μM)	− (“−” indicates less than 50% inhibition at 10 μM)	+ (“+” indicates greater than 50% inhibition at 10 μM)	− (“−” indicates less than 50% inhibition at 10 μM)	− (“−” indicates less than 50% inhibition at 10 μM)	− (“−” indicates less than 50% inhibition at 10 μM)	+ (“+” indicates greater than 50% inhibition at 10 μM)	− (“−” indicates less than 50% inhibition at 10 μM)	− (“−” indicates less than 50% inhibition at 10 μM)	− (“−” indicates less than 50% inhibition at 10 μM)	–

— patent US20080009418A1, “Selective Inhibitors” (Alchemia LTD., priority 2004, published 2008)
